# “Also recorded” adds a separate entry of the source. Like-named read-outs stand apart in the source and are kept apart here.
# Columns and labels:
# MDR1 (P-glycoprotein) = assay: MDCK-MDR1 permeability A→B; format: in vitro ADME, Canine; settings: dog; MDCK cells expressing human MDR1, A→B; read-out: MDCK-MDR Permeability A→B
# How it was run: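 Permeability measured apical-to-basolateral in MDCK cells expressing human MDR1, reported as binned ranges in cm/s×10^−6. Metabolic stability determined as half-life in mouse and human hepatocytes, reported as binned ranges in minutes.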
# cGAS [1] = biological target: T1, cGAS (Homo sapiens, UniProt Q8N884); assay: Transcreener cGAS enzymatic assay (FP); format: biochemical
# T1 sequence (Q8N884 whole entry): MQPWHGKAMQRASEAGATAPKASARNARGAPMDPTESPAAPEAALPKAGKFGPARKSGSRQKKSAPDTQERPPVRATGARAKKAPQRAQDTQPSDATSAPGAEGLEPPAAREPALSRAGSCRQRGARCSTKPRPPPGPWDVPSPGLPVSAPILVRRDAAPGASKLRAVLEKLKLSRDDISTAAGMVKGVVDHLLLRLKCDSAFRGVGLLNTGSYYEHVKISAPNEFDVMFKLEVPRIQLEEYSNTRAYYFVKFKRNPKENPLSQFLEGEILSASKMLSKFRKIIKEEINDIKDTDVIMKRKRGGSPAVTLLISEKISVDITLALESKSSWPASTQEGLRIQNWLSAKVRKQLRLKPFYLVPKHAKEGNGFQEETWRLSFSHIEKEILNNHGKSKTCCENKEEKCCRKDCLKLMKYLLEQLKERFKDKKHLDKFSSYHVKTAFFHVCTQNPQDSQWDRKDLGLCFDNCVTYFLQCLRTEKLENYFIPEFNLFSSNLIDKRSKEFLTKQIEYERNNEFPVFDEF
# How it was run: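 Human cGAS (30 nm) inhibition, 60 min reactions, FP read-out, standard conditions 100 μM ATP and GTP plus 62.5 nM bp ISD. Also run at 1 mM ATP and GTP (physiological), with 200 μM MnCl2, and with mouse cGAS under standard conditions; IC50 reported.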
# [2] = test system: IFN-β production in PBMCs; assay: IFNβ ELISA in human primary PBMCs; format: cell-based; settings: PBMC
# How it was run: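 Human primary PBMCs stimulated with dsDNA or cGAMP to trigger a cGAS/STING-dependent type I IFN response. Secreted IFNβ quantified by ELISA across a dose response to derive IC50 values.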
# cGAS [3] = biological target: T1, cGAS; assay: Cellular thermal shift assay (CETSA) in THP-1 cells; format: cell-based; settings: heat treatment 51.5 °C
# Protocol: Panel A is an image of a western blot of the stabilization measure; panel B is a bar graph of the stabilization measure. Heat treatment was conducted at 51.5 ° C.
# CETSA was also used to confirm that the compounds are binding to cGAS in cells; THP-1 cells are used for this analysis. Compounds were tested in dose response mode by incubating with cells for 1.5 hours at 37° C., followed by pelleting and re-suspending in PBS, heating to 51.5° C. for 3 min and cooling to room temp. Cells were then lysed, debris, including denatured cGAS, was pelleted and the supernatant was analyzed for soluble cGAS by Western Blot using anti-cGAS primary Ab (Cell Signaling). Band intensity was analyzed using Image J software. Stimulation with cGAMP directly activates STING, circumventing cGAS; this was used to determine if compounds had effects on downstream components of cGAS/STING signaling. The IFN-6 ELISA was used as the primary measure of cellular potency and selectivity (Table 3) and used the reporter gene assays for assessing off-target activity with other pattern recognition receptors.
# [4] = test system: IFNβ production in THP-1 cells; assay: IFNβ ELISA in THP-1 cells; format: cell-based, human
# How it was run: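 THP-1 cells stimulated with dsDNA or cGAMP (STING activation bypassing cGAS) in the presence of compound; IFNβ secreted into medium quantified by ELISA. IC50 values reported in potency bins.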
structure (smiles),measurement,setting,value
"Cc1nc(N2C[C@@H](CC(=O)Nc3ccc(-c4ccccc4)cc3)C[C@H]2C(=O)O)c2oc3ccccc3c2n1 [Compound 5, (2S,4R)-4-(2-([1,1′-biphenyl]-4-ylamino)-2-oxoethyl)-1-(2-methylbenzofuro[3,2-d]pyrimidin-4-yl)pyrrolidine-2-carboxylic acid]",Papp A→B,MDR1 (P-glycoprotein),5 to 10 ×10⁻⁶ cm/s
same,IC50,"cGAS [1]; high ATP and GTP (1 mM) to mimic physiological conditions, read-out: IC50 FP Physiological",0.5 to 1 µM
same,IC50,"cGAS [1]; standard conditions: 100 μM ATP and GTP, 62.5 nM bp ISD, 60 minute reactions, read-out: IC50 FP Standard",0.05 to 0.1 µM
same,IC50,[2],1 to 2.5 µM
same,Stabilization of cGAS in cells (CETSA),cGAS [3],dose dependent stabilization; also recorded: intracellular target engagement
same,IC50,"[4]; Homo sapiens, THP-1 cells",< 1 µM
same,Cellular IC50 relative to biochemical IC50,[4]; cellular assays vs cGAS enzymatic assay at 1 mM ATP/GTP,essentially identical

# From patent US20240174684A1, “INHIBITORS OF cGAS ACTIVITY AS THERAPEUTIC AGENTS” (BELLBROOK LABS, LLC, priority 2021, published 2024)
